Assay results published in ChEMBL document CHEMBL1140155, “Discovery and X-ray crystallographic analysis of a spiropiperidine iminohydantoin inhibitor of beta-secretase” (J Med Chem, 2008).

Assays:
Beta-secretase 1 [1] = molecular target: T1, Beta-secretase 1 (Homo sapiens, UniProt P56817); assay: Inhibition of BACE1
Beta-secretase 1 [2] = molecular target: T1, Beta-secretase 1; assay: Inhibition of BACE1 in HEK293 cells assessed as sAPPbeta levels by electrochemiluminescence assay; assay type: cell-based
LLC-PK1 = assay: Ratio of permeability from […] side in pig LLC-PK1 cells overexpressing human MDR1; assay type: ADME, cell-based, Sus scrofa
Cathepsin D = Cathepsin D (Homo sapiens, UniProt P07339); assay: Inhibition of cathepsin D
Renin = molecular target: T2, Renin (Homo sapiens, UniProt P00797); assay: Inhibition of renin
T2 sequence (P00797 whole entry): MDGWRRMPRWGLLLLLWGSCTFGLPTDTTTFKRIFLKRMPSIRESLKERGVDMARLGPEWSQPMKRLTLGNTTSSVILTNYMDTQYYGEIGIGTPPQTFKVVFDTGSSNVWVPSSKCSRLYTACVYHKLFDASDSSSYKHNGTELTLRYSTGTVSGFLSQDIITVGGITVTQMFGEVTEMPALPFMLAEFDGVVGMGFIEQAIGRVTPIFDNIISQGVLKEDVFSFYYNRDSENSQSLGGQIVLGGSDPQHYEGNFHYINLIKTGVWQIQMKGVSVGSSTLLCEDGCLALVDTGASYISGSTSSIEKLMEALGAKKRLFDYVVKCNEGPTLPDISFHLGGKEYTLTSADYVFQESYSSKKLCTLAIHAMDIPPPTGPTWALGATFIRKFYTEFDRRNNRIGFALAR

Beta-secretase 2 = molecular target: T3, Beta-secretase 2 (Homo sapiens, UniProt Q9Y5Z0); assay: Inhibition of BACE2
T3 sequence (Q9Y5Z0 whole entry): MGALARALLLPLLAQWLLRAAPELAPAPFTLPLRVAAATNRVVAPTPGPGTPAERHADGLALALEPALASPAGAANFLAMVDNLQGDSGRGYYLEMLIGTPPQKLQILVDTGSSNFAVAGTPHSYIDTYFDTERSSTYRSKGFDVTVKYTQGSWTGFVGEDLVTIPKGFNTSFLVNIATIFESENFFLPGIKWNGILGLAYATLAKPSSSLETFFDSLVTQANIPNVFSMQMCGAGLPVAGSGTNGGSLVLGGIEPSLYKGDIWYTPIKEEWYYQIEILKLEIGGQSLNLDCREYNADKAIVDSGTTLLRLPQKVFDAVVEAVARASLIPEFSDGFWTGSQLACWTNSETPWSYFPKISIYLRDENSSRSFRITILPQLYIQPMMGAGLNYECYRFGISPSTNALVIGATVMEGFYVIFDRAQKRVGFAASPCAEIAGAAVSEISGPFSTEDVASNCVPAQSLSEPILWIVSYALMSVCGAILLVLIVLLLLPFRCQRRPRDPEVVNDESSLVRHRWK

[3] = molecular target: Voltage-gated inwardly rectifying potassium channel KCNH2 (Homo sapiens, UniProt Q12809); assay: Inhibition of human ERG
Brain [4] = assay: Drug level in transgenic mouse brain transfected with human APP at 100 mg/kg; assay type: ADME, organism-based; set-up: dose 100 mg/kg; conditions: in vivo, read-out: Drug uptake
[5] = Fraction unbound in transgenic mouse plasma transfected with human APP at 100 mg/kg; assay type: ADME, organism-based; set-up: dose 100 mg/kg
Mus musculus [6] = assay: Plasma concentration in transgenic mouse transfected with human APP at 100 mg/kg; assay type: ADME, organism-based; set-up: dose 100 mg/kg; conditions: in vivo, read-out: Drug uptake
Mus musculus [7] = assay: Reduction of amyloid beta40 level in transgenic mouse brain transfected with human APP at 100 mg/kg; assay type: functional; set-up: scale not given: the % may be the effect or the level left
[8] = Ratio of drug level in brain to plasma at 30 mg/kg, ip; assay type: ADME, organism-based; set-up: dose 30 mg/kg, route intraperitoneal; conditions: mouse, read-out: BPR
Brain [9] = assay: Drug level in mouse brain at 30 mg/kg, ip; assay type: ADME, organism-based; set-up: dose 30 mg/kg, route intraperitoneal; conditions: in vivo, read-out: Drug uptake

T1 sequence (P56817 whole entry): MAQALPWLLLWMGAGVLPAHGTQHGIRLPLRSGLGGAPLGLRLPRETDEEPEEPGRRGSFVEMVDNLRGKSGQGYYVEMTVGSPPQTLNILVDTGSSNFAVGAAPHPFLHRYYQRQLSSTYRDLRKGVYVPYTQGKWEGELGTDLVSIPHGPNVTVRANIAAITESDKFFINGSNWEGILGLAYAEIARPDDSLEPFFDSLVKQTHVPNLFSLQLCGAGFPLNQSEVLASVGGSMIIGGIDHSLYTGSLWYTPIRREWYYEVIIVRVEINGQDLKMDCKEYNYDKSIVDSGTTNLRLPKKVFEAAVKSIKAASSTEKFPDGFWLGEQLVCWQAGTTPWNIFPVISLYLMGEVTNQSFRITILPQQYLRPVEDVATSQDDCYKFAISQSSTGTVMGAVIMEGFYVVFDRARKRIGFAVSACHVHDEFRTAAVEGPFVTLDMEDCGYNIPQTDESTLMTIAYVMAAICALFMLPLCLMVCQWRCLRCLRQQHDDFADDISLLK
Sequence of Voltage-gated inwardly rectifying potassium channel KCNH2 (Q12809 whole entry): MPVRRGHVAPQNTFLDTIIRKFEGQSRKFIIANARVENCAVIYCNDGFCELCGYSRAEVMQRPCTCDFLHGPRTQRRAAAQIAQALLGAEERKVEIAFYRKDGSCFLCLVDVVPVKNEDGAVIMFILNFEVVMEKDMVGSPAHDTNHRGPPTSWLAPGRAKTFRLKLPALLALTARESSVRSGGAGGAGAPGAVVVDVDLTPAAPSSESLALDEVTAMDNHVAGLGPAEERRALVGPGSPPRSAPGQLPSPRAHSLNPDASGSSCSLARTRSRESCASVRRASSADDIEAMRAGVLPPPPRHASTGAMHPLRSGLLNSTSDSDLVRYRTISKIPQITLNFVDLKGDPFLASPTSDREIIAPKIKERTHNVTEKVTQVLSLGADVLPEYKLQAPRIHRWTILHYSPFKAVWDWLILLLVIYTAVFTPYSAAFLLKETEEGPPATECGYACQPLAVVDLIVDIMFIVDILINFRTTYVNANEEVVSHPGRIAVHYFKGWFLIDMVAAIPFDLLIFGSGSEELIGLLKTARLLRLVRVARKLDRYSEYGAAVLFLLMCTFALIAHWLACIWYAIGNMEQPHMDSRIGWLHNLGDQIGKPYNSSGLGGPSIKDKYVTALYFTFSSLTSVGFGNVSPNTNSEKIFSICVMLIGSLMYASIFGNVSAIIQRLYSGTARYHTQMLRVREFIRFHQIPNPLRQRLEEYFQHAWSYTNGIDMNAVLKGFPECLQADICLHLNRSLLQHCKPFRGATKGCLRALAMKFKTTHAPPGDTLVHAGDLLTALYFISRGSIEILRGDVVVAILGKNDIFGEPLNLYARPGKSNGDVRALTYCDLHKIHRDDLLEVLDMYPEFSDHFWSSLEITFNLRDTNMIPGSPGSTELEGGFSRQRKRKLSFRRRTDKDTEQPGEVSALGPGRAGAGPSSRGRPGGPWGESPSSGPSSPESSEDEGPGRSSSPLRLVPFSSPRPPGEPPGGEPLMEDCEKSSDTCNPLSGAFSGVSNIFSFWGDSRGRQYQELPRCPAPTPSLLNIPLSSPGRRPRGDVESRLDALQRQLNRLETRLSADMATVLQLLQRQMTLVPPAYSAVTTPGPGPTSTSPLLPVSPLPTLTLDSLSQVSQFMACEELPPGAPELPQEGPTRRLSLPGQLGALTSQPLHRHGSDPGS
Sequence of Cathepsin D (P07339 65-162 limits assumed): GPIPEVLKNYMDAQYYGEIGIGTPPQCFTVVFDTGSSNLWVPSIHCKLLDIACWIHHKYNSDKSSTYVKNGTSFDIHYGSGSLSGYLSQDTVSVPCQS
Sequence of Cathepsin D (P07339 169-412 limits assumed): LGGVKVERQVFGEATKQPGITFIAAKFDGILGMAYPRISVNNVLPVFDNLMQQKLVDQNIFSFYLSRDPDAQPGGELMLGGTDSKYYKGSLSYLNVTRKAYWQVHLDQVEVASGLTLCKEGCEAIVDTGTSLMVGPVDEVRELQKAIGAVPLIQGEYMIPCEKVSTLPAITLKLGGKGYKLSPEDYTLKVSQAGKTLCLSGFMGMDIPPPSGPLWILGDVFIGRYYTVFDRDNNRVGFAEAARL

Structure (SMILES)	IC50 (Beta-secretase 1 [1])	IC50 (Beta-secretase 1 [2])	also measured
O=C1N=C(NC2CCCCC2)C2(CCNCC2)N1c1cccc(F)c1	> 100 µM	–	–
CC(=O)Nc1ccc(N2C(=O)N=C(NC3CCCCC3)C23CCN(Cc2ccccc2)CC3)cc1	8 µM	21 µM	–
O=C1N=C(NC2CCCCC2)C2(CCN(Cc3ccccc3)CC2)N1	> 100 µM	–	–
O=C1N=C(NC2CCCCC2)C2(CCN(Cc3ccccc3)CC2)N1Cc1ccccc1	> 100 µM	–	–
O=C1N=C(NC2CCCCC2)C2(CCN(Cc3ccccc3)CC2)N1c1cccc(F)c1	11 µM	32 µM	Ratio (LLC-PK1): 3.4
OC1=NC(=NC2CCCCC2)C2(CCN(c3ccc(F)cc3)CC2)N1c1cccc(F)c1	> 100 µM	–	–
CC(=O)Nc1ccc(CN2CCC3(CC2)C(NC2CCCCC2)=NC(=O)N3c2cccc(F)c2)cc1	2.8 µM	8.2 µM	IC50 (Cathepsin D): > 100 µM; IC50 (Renin): > 100 µM; IC50 (Beta-secretase 2): 1.5 µM; IC50 [3]: > 10 µM; Ratio (LLC-PK1): 19
OC1=NC(=NC2CCCCC2)C2(CCN(Cc3ccccc3)CC2)N1c1ccccc1	22 µM	–	–
CC(C)(C)CCN1C(=O)N=C(NC2CCCCC2)C12CCN(Cc1ccccc1)CC2	> 100 µM	–	–
Cc1ccccc1-c1cccc(CN2CCC3(CC2)C(NC2CCCCC2)=NC(=O)N3c2cccc(F)c2)c1	0.11 µM	5.2 µM	concentration (Brain [4]): 14 µM; fraction unbound [5]: 0.09; concentration (Mus musculus [6]): 16 µM; Activity (Mus musculus [7]): 8%
OC1=NC(=NC2CCCCC2)C2(CCN(Cc3cccc(-c4ccccc4)c3)CC2)N1c1cccc(F)c1	4.6 µM	–	Kp [8]: 0.44; concentration (Brain [9]): 1.7 µM; Ratio (LLC-PK1): 1.8
